In general, IC50 refers to the concentration needed to halve the response being measured. Read a high IC50 as a need for much substance.

Our source for the IC50 values is the COVID Moonshot data (paper PMC7615835).

The target of this assay is SARS-CoV-2 Main Protease (SARS-CoV-2) (UniProt P0DTD1).

Values joined by “and” are separate entries in the source; they are usually repeats but may differ in a detail not shown here. Equal entries are not always repeated.

`O=C(Cc1cc(Cl)cc(Nc2ccc([N+](=O)[O-])c3ccccc23)c1)Nc1cncc2ccccc12` returned an IC50 of 2.14 µM. In other words, the single-digit micromolar range.
`CC(C)(C)c1ccc(N(C(=O)c2cocn2)C(C(=O)NC2CCOC2)c2cccnc2)cc1` (stereo unspecified) showed an IC50 of 2.77 µM.
Next, `O=C(NCCc1cccc(F)c1)C(c1cccnc1)N(C(=O)c1cocn1)c1ccc(S(=O)(=O)C2CCCC2)cc1` (stereo unspecified): above 99.5 µM; `COCOc1ccc(N(C(=O)c2cocn2)C(C(=O)NCCc2cccc(F)c2)c2cccnc2)cc1` (stereo unspecified): 13.2 µM; `O=C(Nn1cnc2ccccc21)C(Cc1cccc(Cl)c1)c1ccc(N2CCOCC2)cc1` (stereo unspecified): above 99.5 µM.
In the case of `O=C(Cc1cc(Cl)cc(N2CCC(Oc3ccccc3)CC2)c1)Nc1cncc2ccccc12` it was 1.73 µM; in that of `Cc1nnn(-c2ccc(N(C(=O)c3cocn3)C(C(=O)NCCc3cccc(F)c3)c3cccnc3)cc2)n1` (stereo unspecified), 33.2 µM; in that of `O=c1[nH]c(Cc2cccc(S(F)(F)(F)(F)F)c2)nc2cnccc12`, above 99.5 µM.
Next, `O=C(c1cc(=O)[nH]c2ccccc12)N1CCN(c2ccccc2)CC1`: 27.5 µM; `O=C(Nc1cncc2ccccc12)C12CC(C1)Oc1ccc(Cl)cc12`: 56.4 µM.
`Cc1cccc(C)c1NC(=O)[C@@H]1CN(C(=O)CCl)CCN1S(=O)(=O)c1ccsc1` (stereo in doubt) came in with an IC50 of 1.64 µM.
In turn, `CC(=O)NCc1cc(Cl)cc(CC(=O)Nc2cnccc2C)c1` had an IC50 of 41.3 µM.
Next, `CC(C(=O)Nc1cccc2nccnc12)n1cnc2c(N)ncnc21` (stereo unspecified): above 99.5 µM; `CC1(CS(=O)(=O)N2Cc3ccc(Cl)cc3C(C(=O)Nc3cncc4ccc(C(C)(C)O)cc34)C2)CS(=O)(=O)C1` (stereo unspecified): 2.36 µM; `CC1(NC(=O)Cc2cccc(Cl)c2)CCNC1=O` (stereo unspecified): above 99.5 µM.
In the case of `CNC1CCc2c(NC(=O)C3CCOc4ccc(Cl)cc43)cncc21` (stereo unspecified) it was above 99.5 µM.
Molecule `CNC(=O)N1CCc2ccc(Cl)cc2C1C(=O)Nc1cncc2ccccc12` (stereo unspecified) returned an IC50 of 2.47 µM. This lies in the single-digit micromolar range.
In the case of `O=C(Cc1cc(Cl)cc(Nc2ccc(OC(F)F)cc2)c1)Nc1cncc2ccccc12` it was 1.9 µM; in that of `Cc1ccc(Nc2ccccc2C(=O)N2CCC(C3CCNC3)CC2)cc1` (stereo unspecified), above 99.5 µM.
In turn, `CNC(=O)CN1C[C@@H](C(=O)Nc2cncc3cccc(Cl)c23)c2cc(Cl)ccc2C1=O` (stereo in doubt) had an IC50 of 14.6 µM. That is a double-digit micromolar value.
For `O=C(Nc1cnc2ccccn12)C1CCOc2ccc(Cl)cc21` (stereo unspecified), the IC50 is 3.26 µM.
Turning to `O=C(CCl)Nc1cccc(N2CCCC2=O)c1`, the concentration for half-maximal inhibition (IC50) is 72 µM and 68.7 µM.
Next, `CC(NC(=O)COc1ccc(C(N)=O)cc1)(C(=O)Nc1cncc2ccccc12)c1ccc(Cl)c(Cl)c1` (stereo unspecified): 10.5 µM and 14.3 µM.
In the case of `O=C(NCCc1cccc(F)c1)C(c1cccnc1)N(C(=O)c1cocn1)C1CCCOC1` (stereo unspecified) it was above 99.5 µM; in that of `CC(C)(C)c1csc(Nc2cc(Cl)cc(CC(=O)Nc3cncc4ccccc34)c2)n1`, 2.09 µM; in that of `Cc1ccc(-n2c(C)c(C)n3c4c(=O)n(CCCO)c(=O)n(C)c4nc23)cc1Cl`, above 99.5 µM.
For `O=C(Cc1cccc(Cl)c1)Nc1cncc2sccc12`, the IC50 is 0.425 µM.
For the molecule `O=C(Cc1cc(Cl)ccc1Cl)Nc1cncc2ccccc12`, the IC50 worked out at 1.02 µM.
In the case of `CC(C)(C)c1ccc(N(C(=O)c2c[nH]c(=O)s2)C(C(=O)NCCc2cccc(F)c2)c2cccnc2)cc1` (stereo unspecified) it was 29.1 µM; in that of `O=C(C[C@@]1(C(=O)Nc2cncc3ccccc23)CCOc2ccc(Cl)cc21)N1CCN(C2CCOC2)CC1` (stereo in doubt), 46.5 µM.
Next, `N#Cc1ccc(C(=O)N2C[C@@H](F)C[C@H]2CNC(=O)C2CCCC2O)[nH]1` (stereo in doubt): above 99.5 µM; `CN1CCN(c2ccc(F)cc2C(=O)N2CCC(C3CCNC3)CC2)CC1` (stereo unspecified): above 99.5 µM; `CC(C)(C)c1ccc(N(C(=O)c2cocn2)C(C(=O)NCC(=O)OCc2ccccc2)c2cccnc2)cc1` (stereo unspecified): 9.92 µM.
In the case of `COc1ccccc1C(=O)N(c1ccc(C(C)(C)C)cc1)C(C(=O)NCCc1cccc(F)c1)c1cccnc1` (stereo unspecified) it was above 99.5 µM; in that of `O=C(Cc1cc(Cl)cc(NCc2ccc3c(c2)OCO3)c1)Nc1cncc2ccccc12`, 2.52 µM; in that of `O=C(NC1N=Nc2ccccc21)C1CCOc2ccc(Cl)cc21` (stereo unspecified), above 99.5 µM.
In turn, `COC1(CS(=O)(=O)N2Cc3ccc(Cl)cc3C(C(=O)Nc3cncc4ccc(C(C)(C)O)cc34)C2)CC1` (stereo unspecified) returned an IC50 of 1.77 µM.
In the case of `N#Cc1cccc(C2CN(C(=O)CCl)Cc3ccccc32)c1` (stereo unspecified) it was 1.17 µM; in that of `Cc1nc2ccc(NC(=O)NCc3ccc4[nH]c(=O)[nH]c4c3)cc2o1`, above 99.5 µM.
Next, `O=C(Cc1cc(Cl)cc(N(C2CCCCC2)C2CCCCC2)c1)Nc1cncc2ccccc12`: 2.3 µM; `N#CC1(CS(=O)(=O)N2Cc3ccc(Cl)cc3C(C(=O)Nc3cncc4c[nH]nc34)C2)CC1` (stereo unspecified): 1.05 µM.
In the case of `O=C(Nc1cccnc1)[C@@H](c1ccccc1)N1Cc2ccccc2C1=O` (stereo in doubt) it was above 99.5 µM.
Take `CN1CCN(c2cc(Cl)cc(CC(=O)Nc3cncc4ccccc34)c2)[C@H](c2ccccc2)C1` (stereo in doubt): the IC50 was 1.81 µM.
Next, `CC(C)(C)c1ccc(N(C(=O)c2cnco2)C(C(=O)NCCc2cccc(F)c2)c2cccnc2)cc1` (stereo unspecified): 4.78 µM; `O=C(Nc1cncc2ccccc12)C1(CO)CCOc2ccc(Cl)cc21` (stereo unspecified): 1.09 µM; `CC(C)(C)c1ccc(N(C(=O)c2cnc(C(C)(C)CF)o2)C(C(=O)NCCc2cccc(F)c2)c2cccnc2)cc1` (stereo unspecified): above 99.5 µM.
For `C=CC(=O)N(c1ccc(C(C)(C)C)cc1)C(C(=O)NCCOC)c1cccnc1` (stereo unspecified), the IC50 was 55.8 µM.
In the case of `COc1c(O[C@@H]2O[C@H](CO)[C@@H](O)[C@H](O)[C@H]2O)cc2oc(-c3ccc(O)cc3)cc(=O)c2c1O` (stereo in doubt) it was above 99.5 µM; in that of `Cc1cc(C)c(C)c(S(=O)(=O)N2CCN(C(=O)c3cc(=O)[nH]c4ccccc34)CC2)c1C`, 8.19 µM and 8.74 µM; in that of `Cc1ccncc1NC(=O)Cc1cc(Cl)cc(CNS(C)(=O)=O)c1`, 16.6 µM.
Next, `Cc1ccc(Nc2cc(Cl)cc(CC(=O)Nc3cncc4ccccc34)c2)cc1Br`: 2.07 µM; `CCC(=O)Nc1ccc(N(Cc2ccccc2)C(=O)Nn2nnc3ccccc32)cc1`: 3.59 µM; `O=C(Cc1cccc(Cl)c1)NC1CS(=O)(=O)Cc2ccccc21` (stereo unspecified): above 99.5 µM.
Next, `O=C(Oc1cncc2ccccc12)C1CCOc2ccc(Cl)cc21` (stereo unspecified): 0.522 µM; `NS(=O)(=O)c1cc(CN2CCN(C(c3ccccc3)c3ccccc3)CC2)co1`: above 99.5 µM.
On to `O=C(Cc1cc(Cl)cc(N2CCc3c([nH]c4ccccc34)C2)c1)Nc1cncc2ccccc12`, for which the half-maximal inhibitory concentration (IC50) was 2.02 µM.
Next, `O=C(Nc1ccc2c(=O)cc[nH]c2c1)c1ccc2ccncc2c1`: above 99.5 µM.
Next, `C=CC(=O)N(c1ccc(C(C)(C)C)cc1)C(C(=O)NCc1ccc(F)cc1)c1cccnc1` (stereo unspecified): 23.3 µM.
In the case of `CN(CCO)C1CCN(C(=O)CC2(C(=O)Nc3cncc4ccccc34)CCOc3ccc(Cl)cc32)CC1` (stereo unspecified) it was 37.6 µM.
In turn, `C=CC(=O)N(Cc1cccc(Cl)c1)C(C(=O)NCCc1cccc(F)c1)c1cnccc1C` (stereo unspecified) gave an IC50 above 99.5 µM.
In the case of `C=CC(=O)N(c1ccc(C2(C)CC2)cc1)C(C(=O)Nc1ccc(Br)cc1)c1cccnc1` (stereo unspecified), the IC50 was 83.7 µM and 81.2 µM.
